In the assay the target is human recombinant PDE4B (Homo sapiens (Human), UniProt Q07343, S133E/S654A/S659A/S661A). The settings on record: read-out: Human PDE4B FL.

SMILES strings stand for the structures. Where a name gives a salt, the structure may show the parent alone.

Sequence of human recombinant PDE4B (Q07343 122-736 S133E/S654A/S659A/S661A): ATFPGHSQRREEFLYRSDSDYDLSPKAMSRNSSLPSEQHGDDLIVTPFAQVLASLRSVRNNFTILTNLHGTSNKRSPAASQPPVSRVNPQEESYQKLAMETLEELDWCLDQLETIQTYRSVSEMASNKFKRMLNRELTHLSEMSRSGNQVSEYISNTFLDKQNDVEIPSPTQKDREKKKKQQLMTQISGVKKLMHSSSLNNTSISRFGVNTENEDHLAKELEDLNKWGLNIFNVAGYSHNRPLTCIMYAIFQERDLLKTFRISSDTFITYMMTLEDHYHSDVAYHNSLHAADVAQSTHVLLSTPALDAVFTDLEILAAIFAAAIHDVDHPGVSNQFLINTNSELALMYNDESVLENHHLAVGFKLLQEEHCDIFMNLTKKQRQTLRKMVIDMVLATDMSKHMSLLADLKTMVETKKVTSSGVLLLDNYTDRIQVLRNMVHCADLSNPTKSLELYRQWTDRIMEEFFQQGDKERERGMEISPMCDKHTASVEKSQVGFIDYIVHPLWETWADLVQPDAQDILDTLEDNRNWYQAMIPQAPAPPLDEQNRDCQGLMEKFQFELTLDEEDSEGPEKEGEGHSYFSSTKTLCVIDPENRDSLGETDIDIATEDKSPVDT
Method: Reactions are incubated for 30 min at 25° C. The addition of 20 μL of 8 mg/mL yitrium silicate SPA beads (PerkinElmer) stops the reaction. The plates are sealed (TopSeal, PerkinElmer) and the beads are allowed to settle for 8 hrs, after which they are read on the Trilux Microbeta overnight.

With `O=C(NC1CC1)c1nc2cccnc2n1-c1ccc2ncsc2c1` [Example 71, 3-(1,3-Benzothiazol-6-yl)-N-cyclopropyl-3H-imidazo[4,5-b]pyridine-2-carboxamide], the IC50 was found to be 0.155 µM.
Under `Cc1nc2ccc(-n3c(C(=O)NC4CC4)nc4cccnc43)cc2s1` [Example 73, N-Cyclopropyl-3-(2-methyl-1,3-benzothiazol-6-yl)-3H-imidazo[4,5-b]pyridine-2-carboxamide] stands 0.516 µM; under `Cc1cc(C)cc(-n2c(C(=O)NC3CC3)nc3cccnc32)c1` [Example 76, N-Cyclopropyl-3-(3,5-dimethylphenyl)-3H-imidazo[4,5-b]pyridine-2-carboxamide], 0.374 µM.
The value for `O=C(NC1CC1)c1nc2cccnc2n1-c1cccc(Cl)c1F` [Example 78, 3-(3-Chloro-2-fluorophenyl)-N-cyclopropyl-3H-imidazo[4,5-b]pyridine-2-carboxamide, trifluoroacetate salt] was 0.387 µM; that for `O=C(NC1CC1)c1nc2cccnc2n1-c1ccc2ncccc2c1` [Example 80, N-Cyclopropyl-3-(quinolin-6-yl)-3H-imidazo[4,5-b]pyridine-2-carboxamide, trifluoroacetate salt] was 1.47 µM; that for `CCNC(=O)c1nc2cccnc2n1-c1cncc(Cl)c1` [Example 81, 3-(5-Chloropyridin-3-yl)-N-ethyl-3H-imidazo[4,5-b]pyridine-2-carboxamide] was 8.27 µM.
As to `O=C(NC1CC1)c1nc2cccnc2n1-c1ccnc(C(F)(F)F)c1` [Example 82, N-Cyclopropyl-3-[2-(trifluoromethyl)pyridin-4-yl]-3H-imidazo[4,5-b]pyridine-2-carboxamide], the IC50 worked out at 6.07 µM.
Under `COc1cncc(-n2c(C(=O)NC3CC3)nc3cccnc32)c1` [Example 83, N-Cyclopropyl-3-(5-methoxypyridin-3-yl)-3H-imidazo[4,5-b]pyridine-2-carboxamide] stands 13.6 µM.
Under `Cc1cc(-n2c(C(=O)NC3CC3)nc3cccnc32)c(Cl)cc1F` [Example 84, 3-(2-Chloro-4-fluoro-5-methylphenyl)-N-cyclopropyl-3H-imidazo[4,5-b]pyridine-2-carboxamide] stands 16.6 µM; under `Cc1ccc(-n2c(C(=O)NC3CC3)nc3cccnc32)cn1` [Example 85, N-Cyclopropyl-3-(6-methylpyridin-3-yl)-3H-imidazo[4,5-b]pyridine-2-carboxamide], 7.73 µM; under `Cn1ncc2ccc(-n3c(C(=O)NC4CC4)nc4cccnc43)cc21` [Example 86, N-Cyclopropyl-3-(1-methyl-1H-indazol-6-yl)-3H-imidazo[4,5-b]pyridine-2-carboxamide], 24.5 µM.
Under `COc1ccc(-n2c(C(=O)NC3CC3)nc3cccnc32)cc1OC` [Example 87, N-Cyclopropyl-3-(3,4-dimethoxyphenyl)-3H-imidazo[4,5-b]pyridine-2-carboxamide] stands 2.72 µM.
As to `Cc1ccc(-n2c(C(=O)NC3CC3)nc3cccnc32)c(Cl)c1` [Example 88, 3-(2-Chloro-4-methylphenyl)-N-cyclopropyl-3H-imidazo[4,5-b]pyridine-2-carboxamide], the IC50 turned out to be 3.7 µM.
Under `COc1ccc(-n2c(C(=O)NC3CC3)nc3cccnc32)c(C)c1` [Example 89, N-Cyclopropyl-3-(4-methoxy-2-methylphenyl)-3H-imidazo[4,5-b]pyridine-2-carboxamide] stands 3.52 µM; under `O=C(NC1CC1)c1nc2cccnc2n1-c1cc(F)ccc1Cl` [Example 90, 3-(2-Chloro-5-fluorophenyl)-N-cyclopropyl-3H-imidazo[4,5-b]pyridine-2-carboxamide], 9.23 µM; under `Cc1ccc(Cl)c(-n2c(C(=O)NC3CC3)nc3cccnc32)c1` [Example 91, 3-(2-Chloro-5-methylphenyl)-N-cyclopropyl-3H-imidazo[4,5-b]pyridine-2-carboxamide], 9.42 µM.
Under `O=C(NC1CC1)c1nc2cccnc2n1-c1ccc(C(F)(F)F)cc1` [Example 92, N-Cyclopropyl-3-[4-(trifluoromethyl)phenyl]-3H-imidazo[4,5-b]pyridine-2-carboxamide] stands 3.11 µM.

The record behind these values is patent US9815832B2 (priority 2013, dated 2017).
